Reference: patent US11220503B2, “Phthalazine derivatives, preparation method, pharmaceutical composition and usage thereof” (Shanghai SIMR Biotech Co., Ltd., priority 2015, dated 2022)

Experiments:
[1] = target: T1, α5β3γ2 receptor (Homo sapiens, UniProt P18507+P31644); test: Cell level screening: whole cell patch clamp, inverse agonist efficacy; assay type: cell-based; conditions: for inhibition at 0.1 µM: HEK293, compound 100 nM, GABA 0.05-0.1 μM, HEK293 α5β3γ2, clamped at −60 mV, (Ipost-Ipre)*100/Ipre, read-out: inverse agonism efficacy(%); for inverse agonism efficacy of the compound/α5IA inverse agonism efficacy: ratio to α5IA, compound 100 nM
T1 construct: expressed in transfected cells; host or cells: HEK-293 (stably transfected)
T1 sequence (P31644 32-462): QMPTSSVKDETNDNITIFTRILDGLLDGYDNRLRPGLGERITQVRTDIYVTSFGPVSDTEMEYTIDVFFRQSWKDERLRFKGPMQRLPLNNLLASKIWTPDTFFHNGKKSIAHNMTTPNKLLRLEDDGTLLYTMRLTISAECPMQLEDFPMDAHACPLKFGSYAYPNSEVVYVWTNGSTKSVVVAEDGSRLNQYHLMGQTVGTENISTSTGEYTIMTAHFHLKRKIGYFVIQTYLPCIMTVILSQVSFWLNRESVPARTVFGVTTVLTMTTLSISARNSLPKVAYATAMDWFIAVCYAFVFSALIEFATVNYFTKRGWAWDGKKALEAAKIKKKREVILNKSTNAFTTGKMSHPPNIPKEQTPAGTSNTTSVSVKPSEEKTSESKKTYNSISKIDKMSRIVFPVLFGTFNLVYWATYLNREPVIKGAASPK
T1 sequence (P28472 26-473 isoform P28472-2 partner limits assumed): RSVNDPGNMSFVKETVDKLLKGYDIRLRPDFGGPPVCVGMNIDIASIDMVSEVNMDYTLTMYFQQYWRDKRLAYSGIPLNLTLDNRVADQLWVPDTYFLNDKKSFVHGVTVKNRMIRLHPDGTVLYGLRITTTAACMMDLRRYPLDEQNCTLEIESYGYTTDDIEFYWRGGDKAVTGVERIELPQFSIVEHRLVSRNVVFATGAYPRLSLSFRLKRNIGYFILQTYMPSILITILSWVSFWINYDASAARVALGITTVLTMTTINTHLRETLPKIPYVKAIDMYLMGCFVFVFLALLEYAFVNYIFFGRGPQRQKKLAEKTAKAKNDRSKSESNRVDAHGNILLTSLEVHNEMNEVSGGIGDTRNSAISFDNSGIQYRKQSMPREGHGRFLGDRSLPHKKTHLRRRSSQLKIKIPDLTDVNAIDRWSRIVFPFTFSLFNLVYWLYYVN
T1 sequence (P18507 40-475): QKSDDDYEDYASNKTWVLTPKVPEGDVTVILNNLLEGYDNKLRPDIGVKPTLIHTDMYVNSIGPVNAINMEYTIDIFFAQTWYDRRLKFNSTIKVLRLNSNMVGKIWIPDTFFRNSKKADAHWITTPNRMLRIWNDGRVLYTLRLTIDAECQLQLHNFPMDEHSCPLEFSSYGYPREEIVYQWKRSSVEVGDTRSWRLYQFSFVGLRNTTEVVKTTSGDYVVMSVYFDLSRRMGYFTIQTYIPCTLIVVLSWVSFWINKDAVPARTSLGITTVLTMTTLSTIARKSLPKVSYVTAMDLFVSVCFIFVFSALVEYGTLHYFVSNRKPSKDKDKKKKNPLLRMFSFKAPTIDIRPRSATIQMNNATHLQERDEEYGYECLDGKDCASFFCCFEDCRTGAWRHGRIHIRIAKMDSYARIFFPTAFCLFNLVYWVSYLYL
Method: (§1) The inventors used electrophysiological methods to assay the inverse agonist efficacy of the substance to be tested. The detailed procedures are as follows: (1) Different subunits of GABAA receptors were expressed in human embryonic kidney cells 293 (HEK293). The cells were cultured in a culture medium and used as a cell model for screening potential analgesics. The α, β and γ subunits are necessary to form complete functional GABAA receptors. In this example, the inventor has established the following cell model: (a) α5 subunit (protein sequence is GenBank accession number: NP_001158509), β3 subunit (protein sequence is GenBank accession number: NP_068712) and γ2 subunit (protein sequence is GenBank accession number: NP_944494) were expressed in HEK-293 cell lines at the same time, which formed the complete functional GABAA receptors. (2) Cells were stably transfected HEK-293 cells expressing α5β3γ2 receptor, which were labeled by green fluorescent protein (GFP). Cells were grown in 10 cm dishes. The cells were passaged after reaching 80-90% confluence. During passaging, the culture medium was removed and discarded, 3 mL DMEM medium (Gibco™) was added to the dishes, the dishes were shaken slightly, and DMEM was removed and discarded. 3 mL Trypsin (Trypsin-EDTA 0.05%, Gibco™) was added and cells were digested at 37° C. for 3 minutes. Then 3 mL complete growth medium (DMEM+10% horse serum (Gibco™)) was added and the cells at the bottom of the culture dishes were dispersed. The cell suspension were transferred to a 15 mL centrifugal tube (Corning®) and then centrifuged at 200 g for 3 minutes. The supernatant was discarded, 4 mL complete growth medium was added, and the cells were resuspended by gently blowing. The cell suspension was diluted by 1:5 or 1:10 for subculturing. The cell suspension was diluted by 1:12 for electrophysiology experiment, which are added to the 24 well plate (Corning®) which has a glass slide pre-treated with poly-D-lysine. The cells were adhered to the slide before the experiment was conducted. The cells were maintained in culture for no more than 24 hours before use. (3) Compound concentration: for screening, all compounds were diluted to a final concentration of 100 nM. GABA was diluted at the concentration of 0.05-0.1 μM. The compounds were at the concentration of 1 nM, 10 nM, 50 nM, 100 nM and 1000 nM in dose-inverse agonism efficacy (%) experiment. The whole cell patch clamp technique was used in electrophysiology experiments. The extracellular solution (ECS) contained: 150 mM NaCl, 5 mM KCl, 2.5 mM CaCl2, 1 mM MgCl2, 10 mM HEPES and 10 mM glucose (pH 7.4); Patch electrodes were filled with an intracellular solution containing: 140 mM KCl, 5 mM EGTA, 10 mM HEPES (adjusted to pH 7.4 with KOH and to 320-330 mOsm with water). The currents were recorded by an EPC-10 amplifier and the PatchMaster software (HEKA). Patch electrodes with a resistance of 5-6 MΩ were pulled from borosilicate glass (Sutter). The diluted compounds were perfused by OCTAFLOWII system. GFP positive and independently growing cells were selected for recording. During recording, the membrane voltage was clamped at −60 mV. During experiment, the cells were firstly perfused with ECS for 20 seconds. When the baseline reached to a stable state, cells were then perfused with GABA solution. Then the current induced by GABA can be detected. After about 20-40 seconds, the current was stable. ECS was switched to compounds solution and the effects of the compounds were detected. At last, the perfusion solution was switched to ECS. The experiment was finished when the post-baseline returned to the pre-baseline before compounds perfusion. Only the data whose pre-baseline and post-baseline are at almost the same level were used for analysis. GABA was diluted at the concentration of 0.05-0.1 μM in ECS. Then, compounds were diluted at the desired concentration in GABA ECS. (4) Currents were analyzed with the PatchMaster (HEKA) software. […]

[2] = target: T1, α5β3γ2 receptor; test: Supplementary data for cell level screening: new electrophysiology method (I. Lecker et al); assay type: cell-based; conditions: for Inverse agonism efficacy(%): new method, CsCl intracellular solution, GABA 0.1˜0.3 CM, other procedures as previous method; for inverse agonism efficacy of the compound/α5IA inverse agonism efficacy: ratio to the α5IA reference run above in the table (r4 or r29)
Method: as §1, with “GABA was diluted at the concentration of 0.05-0.1 μM.” left out, “[…],” for “Patch electrodes were filled with an intracellular solution containing: 140 mM KCl,”, “([…]” for “(adjusted to pH 7.4 with KOH and to 320-330 mOsm with”, “GABA was diluted at the concentration of 0.05-0.1 μM in ECS.” left out, “software. The GABA currents before (Ipre) and after (Ipost) compounds perfusion were recorded respectively. The efficacies of compounds were calculated by the following equation: inverse agonism efficacy=(Ipost-Ipre)*100/Ipre. N indicates experiment numbers.” for “software.”

Row | SMILES | inhibition at 0.1 µM [1] | inverse agonism efficacy of the compound/α5IA inverse agonism efficacy [1] | Inverse agonism efficacy(%) [2] | inverse agonism efficacy of the compound/α5IA inverse agonism efficacy [2]
1 | O=C(c1ccc(COc2nn3c(-c4cc(CO)on4)nnc3c3ccccc23)nc1)N1CCS(=O)(=O)CC1 [Compound 40, (1,1-dioxidothiomorpholino)(6-(((3-(5-(hydroxymethyl)isoxazol-3-yl)-[1,2,4]triazolo[3,4-a]phthalazin-6-yl)oxy)methyl)pyridin-3-yl)methanone] | 29% | 1.286 | −25.5% | 1.468
2 | O=C(NCCO)c1ccc(COc2nn3c(-c4cc(CO)on4)nnc3c3ccccc23)nc1 [Compound 39, N-(2-hydroxyethyl)-6-(((3-(5-(hydroxymethyl)isoxazol-3-yl)-[1,2,4]triazolo[3,4-a]phthalazin-6-yl)oxy)methyl)nicotinamide] | 49% | 2.174 | −26% | 1.497
3 | COCCNC(=O)c1ccc(COc2nn3c(-c4cc(CO)on4)nnc3c3ccccc23)nc1 [Compound 43, 6-(((3-(5-(hydroxymethyl)isoxazol-3-yl)-[1,2,4]triazolo[3,4-a]phthalazin-6-yl)oxy)methyl)-N-(2-methoxyethyl)nicotinamide] | 27.9% | 1.239 | −35% | 2.015
4 | CC(C)NC(=O)c1ccc(COc2nn3c(-c4cc(CO)on4)nnc3c3ccccc23)nc1 [Compound 38, 6-(((3-(5-(hydroxymethyl)isoxazol-3-yl)-[1,2,4]triazolo[3,4-a]phthalazin-6-yl)oxy)methyl)-N-iso propylnicotinamide] | 40% | 1.774 | −52.5% | 3.023
5 | Cc1cc(-c2nnc3c4ccccc4c(OCc4ccc(C(=O)N[C@H](C)CO)cn4)nn23)no1 [Compound 02, (R)—N-(1-hydroxypropan-2-yl)-6-((3-(5-methylisoxazol-3-yl)-[1,2,4]triazolo[3,4-a]phthalazin-6-yloxy)methyl)nicotinamide] | 52.2% | 2.313 | −21.33% | 1.229
6 | Cc1cc(-c2nnc3c4ccccc4c(OCc4ccc(C(=O)NN5CCOCC5)cn4)nn23)no1 [Compound 01, 6-((3-(5-methylisoxazol-3-yl)-[1,2,4]triazolo[3,4-a]phthalazin-6-yloxy)methyl)-N-morpholinonicotinamide] | 58% | 2.572 | −18.67% | 1.075
7 | O=C(NC1CCC1)c1ccc(COc2nn3c(-c4cc(CO)on4)nnc3c3ccccc23)nc1 [Compound 48, N-cyclobutyl-6-(((3-(5-(hydroxymethyl)isoxazol-3-yl)-[1,2,4]triazolo[3,4-a]phthalazin-6-yl)oxy)methyl)nicotinamide] | 43.2% | 1.915 | −20% | 1.151
8 | C[C@H](CO)NC(=O)c1ccc(COc2nn3c(-c4cc(CO)on4)nnc3c3ccccc23)c(C#N)c1 [Compound 55, (R)-3-cyano-4-(((3-(5-(hydroxymethyl)isoxazol-3-yl)-[1,2,4]triazolo[3,4-a]phthalazin-6-yl)oxy)methyl)-N-(1-hydroxypropan-2-yl)benzamide] | 33.3% | 1.4765 | −31.6% | 1.819
